From patent US20130040903A1, “PHARMACEUTICAL COMPOSITIONS FOR TREATING DEPRESSION AND ANXIETY” (priority 2007, published 2013)

Assays:
ICR mice = experiment: Resetpine-induced mouse body temperature decrease experiment (Experiments 2, 5, 7); format: in vivo; conditions: Experiment 5; 3 mg/kg P.O. 7 days; 4 hours after Resetpine 2 mg/kg i.p.
Description: 2.5.1 Group division and administration of drug: The mice are grouped randomly, and 10 mice are in each group. 1. High dose of Embodiment 1 (80 mg/kg, P.O., administered for 7 days); 2. middle dose of Embodiment 1 (40 mg/kg, P.O., administered for 7 days); 3. low dose of Embodiment 1 (20 mg/kg, P.O., administered for 7 days); 4.
2.5.2 Experimental method: After 1 hour of the last administration of drug on the eighth day, the mouse's anal temperature is determined. Then 2 mg of Resetpine per kilogram of the body weight is given by intraperitoneal injection. After 4 hours of injecting Resetpine, mouse's anal temperature is determined once again. The depth and time of injecting the thermometer into mouse's anus are identical in each temperature measurement.
5.5.1 Group division and administration of drug: The mice are grouped randomly, and 10 mice are in each group. 1. […]
5.5.2 Experimental method: After 1 hour of the last administration of drug on the eighth day, the mouse's anal temperature is determined. […] After 4 hours of injecting Resetpine, mouse's anal temperature is determined once again. […]
2.5.2 Experimental method: After 1 hour of the last administration of drug on the eighth day, the mouse's anal temperature is determined. […] After 4 hours of injecting Resetpine, mouse's anal temperature is determined once again. […]

Kunming (KM) mice = experiment: Mouse light-dark transition experiment (Experiments 3, 10); format: in vivo; conditions: 2.5 mg/kg into the stomach once daily 7 days, within 10 minutes
Description: 3.5.1 Group division and administration of drug: The mice are grouped randomly as 5 groups, and 10 mice are in each group. 1. High dose of Embodiment 1 (80 mg/kg); 2. middle dose of Embodiment 1 (40 mg/kg); 3. low dose of Embodiment 1 (20 mg/kg); 4. Diazepam (2.5 mg/kg); and 5. physiological saline (normal saline, NS). The drugs are fed into the mouse stomach once every day, and the mouse is administered for continuous 7 days. In the period of administration, the mouse eats and drinks freely, and the experiment is proceeded after 1 hour of the last administration of drug on the eighth day.
Mouse light-dark transition test: The dark chamber occupies one third of the light-dark transition chamber (44 cm×21 cm×21 cm), and the top is capped. The light chamber occupies two third thereof and is illuminated brightly. […] The times that the mouse enters into the dark chamber and returns to the light chamber within 10 minutes are determined, and the times thereof are being the index for evaluating the anti-anxiety function of the drugs. […]
Mouse light-dark transition test: The dark chamber occupies one third of the light-dark transition chamber (44 cm×21 cm×21 cm), and the top is capped. […] The times that the mouse enters into the dark chamber and returns to the light chamber within 10 minutes are determined, and the times thereof are being the index for evaluating the anti-anxiety function of the drugs.

| SMILES | Time of non-movement (ICR mice) [s] | Times of passing from dark chamber to light chamber (Kunming (KM) mice; Experiment 3) | Times of passing from dark chamber to light chamber (Kunming (KM) mice; Experiment 10) |
| --- | --- | --- | --- |
| Fc1ccc([C@@H]2CCNC[C@H]2COc2ccc3c(c2)OCO3)cc1 [Paroxetine] | 2.38 ± 0.69 | – | – |
| CN1C(=O)CN=C(c2ccccc2)c2cc(Cl)ccc21 [Diazepam] | – | 11.3 ± 4.54 | 11.7 ± 4.47 |
